One assay deals with T1, NLRP3 (Homo sapiens, UniProt Q96P20).
T1 construct: To generate HMDM, human monocytes are isolated from buffy coat blood; endogenous in cells; host or cells: human monocyte-derived macrophages (HMDM) from CD14+ buffy coat monocytes
T1 sequence (Q96P20 whole entry): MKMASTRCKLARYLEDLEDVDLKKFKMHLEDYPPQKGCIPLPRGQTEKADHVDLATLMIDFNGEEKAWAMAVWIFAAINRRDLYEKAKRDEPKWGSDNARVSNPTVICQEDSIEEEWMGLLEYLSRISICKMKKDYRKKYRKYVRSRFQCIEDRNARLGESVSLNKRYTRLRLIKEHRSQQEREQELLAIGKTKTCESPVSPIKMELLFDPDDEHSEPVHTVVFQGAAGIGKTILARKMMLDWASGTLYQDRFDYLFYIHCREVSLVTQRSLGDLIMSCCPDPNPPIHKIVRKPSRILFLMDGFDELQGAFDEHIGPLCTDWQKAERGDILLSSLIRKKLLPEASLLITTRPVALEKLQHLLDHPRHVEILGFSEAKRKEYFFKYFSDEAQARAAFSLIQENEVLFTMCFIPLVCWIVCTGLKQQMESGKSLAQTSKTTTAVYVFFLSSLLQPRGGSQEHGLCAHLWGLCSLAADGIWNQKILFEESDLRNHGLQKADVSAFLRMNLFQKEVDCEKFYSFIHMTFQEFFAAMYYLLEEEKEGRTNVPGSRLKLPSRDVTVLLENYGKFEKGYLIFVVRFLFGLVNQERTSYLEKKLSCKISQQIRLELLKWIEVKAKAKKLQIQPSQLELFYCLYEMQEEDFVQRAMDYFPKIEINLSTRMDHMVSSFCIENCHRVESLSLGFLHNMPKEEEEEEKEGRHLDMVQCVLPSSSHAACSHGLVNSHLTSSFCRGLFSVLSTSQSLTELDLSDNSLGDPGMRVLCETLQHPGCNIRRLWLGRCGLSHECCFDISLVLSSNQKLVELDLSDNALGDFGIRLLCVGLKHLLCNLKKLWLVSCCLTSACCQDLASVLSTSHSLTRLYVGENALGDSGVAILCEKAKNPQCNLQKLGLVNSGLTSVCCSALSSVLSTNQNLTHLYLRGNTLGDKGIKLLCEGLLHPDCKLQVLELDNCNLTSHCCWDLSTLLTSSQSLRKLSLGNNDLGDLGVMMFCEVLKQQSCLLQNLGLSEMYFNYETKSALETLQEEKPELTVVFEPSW
Nature of the assay: HMDM NLRP3 inflammasome assay, IL-1β secretion (Table 2). It is filed as cell-based. Conditions: human monocyte derived macrophages.
Protocol: HMDM CELL CULTURE: To generate HMDM, human monocytes are isolated from buffy coat blood using Ficoll-Plaque Plus (GE Healthcare) and density centrifugation. CD14^+ cell selection is performed using MACS magnetic beads (Miltenyl Biotec). […] 91, p.
Medium is removed and replaced with serum free medium (SFM) containing test compound 30 min prior to NLRP3 stimulation. […] ATP can be sourced from Sigma Aldrich, nigericin and MSU from Invivogen and LeuLeu-Ome from Chem-Impex International.
MEASUREMENT OF IL-1β SECRETION: For ELISA assays cells are seeded in 96 well plates. Supernatants are removed and analysed using ELISA kits according to the manufacturer's instructions (DuoSet® R&D Systems, ReadySetGo!® eBioscience, BD OptEIA™, or Perkin Elmer AlphaLISA®).
As for `C#CCNC(=O)CCc1ccc(S(=O)(=O)NC(=O)Nc2c3c(cc4c2CCC4)CCC3)cc1` [Example 13, 3-(4-(N-((1,2,3,5,6,7-Hexahydro-s-indacen-4-yl)carbamoyl)sulfamoyl)-phenyl)-N-(prop-2-yn-1-yl)propanamide], the 50% inhibitory concentration (IC50) is below 1000 nM. On to `O=C(Nc1c2c(cc3c1CCC3)CCC2)NS(=O)(=O)c1cccc(C(=O)O)c1` [Example 10, 3-(N-((1,2,3,5,6,7-Hexahydro-s-indacen-4-yl)carbamoyl)sulfamoyl)-benzoic acid], for which the concentration for half-maximal inhibition (IC50) is below 1000 nM.

The test system of a further assay is MIN6 cells. Nature of the assay: MIN6 insulin assay (insulin secretion, radioimmunoassay). It is filed as cell-based. The note with it: 10 μM test compound, 2.8 mM glucose KRB, 1 h; FIG. 1. Here is the method:
To confirm the insulinotropic properties of the compounds of the invention, their ability to stimulate insulin secretion from MIN6 cells at a single concentration (10 μM) was tested using the following protocol. The tests were conducted by the Garvan Institute of Medical Research, Sydney, Australia.
MIN6 INSULIN ASSAY PROTOCOL: MIN6 cells (passage 29-37) were incubated for 1 h in Krebs-Ringer buffer (KRB) containing 2.8 mM glucose. The cells were then stimulated for 1 h in either 2.8 mM glucose KRB, 20 mM glucose KRB, or 2.8 mM glucose KRB plus test compound. Supernatants were collected and then assayed using rat insulin radioimmunoassay kit (RI-13K, Merck Millipore).
With `CC(C)(O)c1coc(S(=O)(=O)NC(=O)Nc2c3c(cc4c2CCC4)CCC3)c1` [CE7, MCC 950], the “insulin secretion from MIN6 cells” value is given as “basal levels of insulin secretion”.

In another assay the target is T2, NLRP3 (Mus musculus, UniProt Q8R4B8).
T2 construct: Macrophages from C57BL/6 mice were differentiated from bone marrow; endogenous in cells; host or cells: primary bone marrow-derived macrophages (BMDM) from C57BL/6 mice
T2 sequence (Q8R4B8 whole entry): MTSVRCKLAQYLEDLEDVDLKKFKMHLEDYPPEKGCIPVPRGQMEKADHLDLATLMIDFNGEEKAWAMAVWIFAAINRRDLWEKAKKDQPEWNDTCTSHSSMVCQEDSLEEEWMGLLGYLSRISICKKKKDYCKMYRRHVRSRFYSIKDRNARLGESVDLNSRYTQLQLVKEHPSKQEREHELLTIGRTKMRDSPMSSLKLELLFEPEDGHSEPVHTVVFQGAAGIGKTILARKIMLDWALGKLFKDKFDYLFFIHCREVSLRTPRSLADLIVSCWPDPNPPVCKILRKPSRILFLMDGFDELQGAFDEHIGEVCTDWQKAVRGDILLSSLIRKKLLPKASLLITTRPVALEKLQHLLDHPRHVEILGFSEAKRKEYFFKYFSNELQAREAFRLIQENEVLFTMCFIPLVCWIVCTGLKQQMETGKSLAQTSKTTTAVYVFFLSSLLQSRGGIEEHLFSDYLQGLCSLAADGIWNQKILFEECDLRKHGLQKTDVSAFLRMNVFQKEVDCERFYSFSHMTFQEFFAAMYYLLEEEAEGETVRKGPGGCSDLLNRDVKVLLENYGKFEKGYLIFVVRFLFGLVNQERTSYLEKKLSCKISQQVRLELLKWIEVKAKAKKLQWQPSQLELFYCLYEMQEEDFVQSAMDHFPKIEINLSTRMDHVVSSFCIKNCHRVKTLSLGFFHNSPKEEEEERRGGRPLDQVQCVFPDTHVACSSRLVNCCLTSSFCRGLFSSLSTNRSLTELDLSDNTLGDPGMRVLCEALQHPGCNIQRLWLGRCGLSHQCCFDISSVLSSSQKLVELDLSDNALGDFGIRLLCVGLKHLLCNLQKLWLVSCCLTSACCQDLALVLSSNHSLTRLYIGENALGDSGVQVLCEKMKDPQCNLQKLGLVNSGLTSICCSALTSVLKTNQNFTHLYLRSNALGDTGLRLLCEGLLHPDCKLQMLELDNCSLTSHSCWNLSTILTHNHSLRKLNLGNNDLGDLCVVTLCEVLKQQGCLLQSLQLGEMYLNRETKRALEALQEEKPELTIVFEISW
In words: NLRP3 inflammasome assay: IL-1β secretion from LPS-primed, ATP-stimulated murine BMDM (Table 1). The note with it: ATP 2.5 mM 1 h, ELISA, read-out: IC50 (NLRP3 inhibitory activity). Type of assay: cell-based, murine (C57BL/6 mice). How it is done: The NLRP3-inhibitory effect of a number of the above compounds was tested by measuring the IL-1β secretion from murine bone marrow derived macrophages (BMDM) primed with lipopolysaccharide (LPS), treated with test compound (to a maximum concentration of 200 μM) and finally stimulated with the NLRP3 stimulus ATP. The half-maximal inhibitory concentration (IC50) was determined for each compound and compared to a number of comparative examples (CE 1-10) including commercially available oral sulphonylureas (CE1-6) and the known NLRP3 inhibitor MCC 950 (CE7). The experimental protocol was as follows.
The University of Queensland Animal Ethics Committee approved all experimental protocols involving mice.
NLRP3 INFLAMMASOME ASSAY: BMDM were seeded at 1×10^6 cells/mL in 96 well plates. The following day the overnight medium was replaced with Opti-MEM® reduced serum medium (Life Technologies) and cells were stimulated with 100 ng/mL ultrapure E. coli K12 LPS (Invivogen) for 3 h. Compounds were prepared from a 10 mM stock by serial dilution in 80% DMSO/20% 10 mM ammonium bicarbonate. […] IL-1β levels in cell-free supernatants were analysed by ELISA (ReadySetGo!® eBioscience).
Consider `Cc1cc(C(=O)NCCc2ccc(S(=O)(=O)NC(=O)NN3CCCCCC3)cc2)no1` [CE4, Glisoxepide], for which the IC50 is above 50000 nM.

Consider `Cc1cnc(C(=O)NCCc2ccc(S(=O)(=O)NC(=O)NC3CCCCC3)cc2)cn1` [CE3, Glipizide], for which the IC50 is above 200000 nM. On to `CC(=O)c1ccc(S(=O)(=O)NC(=O)NC2CCCCC2)cc1` [CE1, Acetohexamide], for which the 50% inhibitory concentration (IC50) is above 200000 nM. For the molecule `Cc1cnc(C(=O)NCCc2ccc(S(=O)(=O)NC(=O)Nc3c4c(cc5c3CCC5)CCC4)cc2)cn1` [Example 3, N-(4-(N-((1,2,3,5,6,7-Hexahydro-s-indacen-4-yl)carbamoyl)sulfamoyl)phenethyl)-5-methylpyrazine-2-carboxamide], the IC50 was below 1000 nM. The same measure, in the same setting: the result for `Nc1ccc(S(=O)(=O)NC(=O)Nc2c3c(cc4c2CCC4)CCC3)cc1` [CE8] reads below 1000 nM. Same read-out and setting: next, `CCC1=C(C)CN(C(=O)NCCc2ccc(S(=O)(=O)NC(=O)N[C@H]3CC[C@H](C)CC3)cc2)C1=O` [CE6, Glimepiride]: above 50000 nM; `O=C(Nc1c2c(cc3c1CCC3)CCC2)NS(=O)(=O)c1ccc2c(c1)CCC2` [CE9]: below 1000 nM. On the same count and under the same terms, next, `CC(=O)c1ccc(S(=O)(=O)NC(=O)Nc2c3c(cc4c2CCC4)CCC3)cc1` [Example 1, 4-Acetyl-N-((1,2,3,5,6,7-hexahydro-s-indacen-4-yl)carbamoyl) benzenesulfonamide]: below 1000 nM. Regarding `O=C(Nc1c2c(cc3c1CCC3)CCC2)NS(=O)(=O)c1ccc([N+](=O)[O-])cc1` [CE10], the 50% inhibitory concentration (IC50) is below 1000 nM. The same measure, in the same setting: next, `COc1ccc2c(c1)C(=O)N(CCc1ccc(S(=O)(=O)NC(=O)NC3CCCCC3)cc1)C(=O)C2(C)C` [CE5, Gliquidone]: above 50000 nM.

Values taken from US11840543B2, “Compounds and uses” (The University of Queensland, priority 2017, dated 2023).
